# In patent publication US10201546B2, “Quinolinyl modulators of RORγt” (Janssen Pharmaceutica NV, priority 2013, dated 2019):
# Where a name gives a salt, the structure may show the parent alone. Read-outs that look alike come from different tables or passages of the source.
# Key:
# [1] = molecular target: human RORγt ligand binding domain (RORγt LBD) (Homo sapiens (Human), UniProt P51449); experiment: RORγt ThermoFluor assay (thermal shift, binding affinity Kd)
# [2] = molecular target: human RORγt LBD fused to the DNA binding domain of the GAL4 protein (Homo sapiens (Human), UniProt P51449); experiment: RORγt (LBD) reporter assay in HEK293T cells; type: cell-based; parameters: RORγt (LBD) Reporter Assay, % inhibition: dose or concentration left out as unconfirmed; conditions: for inhibition at 6 µM: HEK-293T, read-out: RORγt (LBD) Reporter Assay, % inhibition @ 6 μM, @ 6 μM
# Sequence of human RORγt LBD fused to the DNA binding domain of the GAL4 protein (P51449 258-518): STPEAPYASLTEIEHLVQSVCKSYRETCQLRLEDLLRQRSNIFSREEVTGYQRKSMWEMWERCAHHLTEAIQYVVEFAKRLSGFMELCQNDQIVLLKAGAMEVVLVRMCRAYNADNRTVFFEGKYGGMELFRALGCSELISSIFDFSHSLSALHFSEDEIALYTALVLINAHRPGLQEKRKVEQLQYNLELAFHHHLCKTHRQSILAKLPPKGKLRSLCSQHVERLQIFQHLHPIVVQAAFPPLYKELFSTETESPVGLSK
# Text: A reporter assay was used to test functional activity of RORγt modulatory compounds on transcriptional activation driven by the RORγt LBD. Cells used in the assay were co-transfected with two constructs. The first construct, pBIND-RORγt LBD, contained the wild type human RORγt LBD fused to the DNA binding domain of the GAL4 protein. The second construct, pGL4.31 (Promega Cat no. C935A), contained multiple GAL4 responsive DNA elements upstream of firefly luciferase.
# The pBIND vector contains the GAL4 DNA Binding Domain (GAL4 DBD) and the renilla luciferase gene under control of the SV40 promoter. Renilla luciferase expression serves as a control for transfection efficiency and cell viability.
# The reporter assay was performed by transiently transfecting HEK293T cells with 5 μg of pBIND-RORγt LBD or pBIND-RORγt LBD-AF2 and 5 μg pGL4.31 (Promega Cat no. C935A) using Fugene 6 (Invitrogen Cat no. E2691) at a 1:6 ratio of DNA:Fugene 6 in a T-75 flask in which cells were at least 80% confluent. Twenty four hours after bulk transfection, cells were plated into 96-well plates at 50,000 cells/well in phenol-red free DMEM containing 5% Lipid Reduced FCS and Pen/Strep. Six hours after plating, cells were treated with compounds for 24 hours. Media was removed and cells were lysed with 50 μL 1× Glo Lysis Buffer (Promega). Dual Glo Luciferase Reagent (50 μL/well) was then added and firefly luciferase luminescence was read on an Envision after a ten minute incubation. Finally, Stop and Glo reagent (50 L/well) was added and renilla luciferase luminescence was read on an Envision after a ten minute incubation. To calculate the effect of compounds on RORγt activity, the ratio of firefly to renilla luciferase was determined and plotted against compound concentration. Agonist compounds increase RORγt-driven luciferase expression, and antagonist or inverse agonist compounds decrease luciferase expression.
# [3] = system: IL-17 production by CD4+ T cells under conditions which favor Th17 differentiation; experiment: Human Th17 assay (IL-17 production by CD4 T cells); type: cell-based; conditions: Homo sapiens
# Experimental: The human Th17 assay tests the effect of RORγt modulatory compounds on IL-17 production by CD4 T cells under conditions which favor Th17 differentiation. Total CD4^+ T cells were isolated from the peripheral blood mononuclear cells (PBMC) of healthy donors using a CD4^+ T cell isolation kit II, following the manufacturer's instructions (Miltenyi Biotec). […] 50 μL of compound at titrated concentrations in DMSO were added into each well at final DMSO concentration at 0.2%. Cells were incubated for 1 hour, then 50 μL of Th17 cell differentiation medium was added to each well. The final concentrations of antibodies and cytokines (R&D Systems) in differentiation medium were: 3×10^6/mL anti-CD3/CD28 beads (prepared using human T cell activation/expansion kit, Miltenyi Biotec), 10 μg/mL anti-IL4, 10 μg/mL anti-IFNγ, 10 ng/mL IL113, 10 ng/mL IL23, 50 ng/mL IL6, 3 ng/mL TGFβ and 20 U/mL IL2. Cells were cultured at 37° C. and 5% CO2 for 3 days. Supernatants were collected and the accumulated IL-17 in culture was measured by using MULTI-SPOT® Cytokine Plate following manufacture's instruction (Meso Scale Discovery). The plate was read using Sector Imager 6000, and IL-17 concentration was extrapolated from the standard curve. The IC50s were determined by GraphPad.
# [4] = read-out: ThermoFluor Assay, Kd
# [5] = read-out: ThermoFluor ® Assay, Kd
# Sequence of human RORγt ligand binding domain (RORγt LBD) (P51449 other isoform, or with tags, fused parts or gaps): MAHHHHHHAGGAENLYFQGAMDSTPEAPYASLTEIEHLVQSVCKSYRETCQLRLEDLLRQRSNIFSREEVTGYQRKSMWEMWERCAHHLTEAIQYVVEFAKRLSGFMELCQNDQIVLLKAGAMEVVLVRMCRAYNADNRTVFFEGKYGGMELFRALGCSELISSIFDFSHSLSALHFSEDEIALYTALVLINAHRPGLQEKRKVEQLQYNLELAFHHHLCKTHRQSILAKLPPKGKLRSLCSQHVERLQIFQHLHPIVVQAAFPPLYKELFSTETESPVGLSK
SMILES,"Kd [1, 4] [µM]",IC50 [2] [µM],inhibition at 6 µM [2] [%],IC50 [3] [µM],"Kd [1, 5] [µM]","RORγt (LBD) Reporter Assay, % inhibition [2] [%]","RORγt (LBD) Reporter Assay, % inhibition @ 6 μM [2] [%]"
"COc1nc2ccc(C(O)(c3ccc(C)nc3C)c3cnnn3C)cc2c(Cl)c1OCCS(C)(=O)=O (stereo not drawn) [Example 70a, {4-Chloro-2-methoxy-3-[2-(methylsulfonyl)ethoxy]quinolin-6-yl}(2,6-dimethylpyridin-3-yl)(1-methyl-1H-1,2,3-triazol-5-yl)methanol]",3.3,> 6,36,,,,
"CCOC(=O)c1c(C(F)(F)F)nc2ccc(C(O)(c3cccnc3)c3cccnc3)cc2c1C(F)(F)F [Example 8, Ethyl 6-(hydroxydi(pyridin-3-yl)methyl)-2,4-bis(trifluoromethyl)quinoline-3-carboxylate.TFA]",,,,0.2,,,
"Cn1cncc1C(O)(c1ccc(C(F)(F)F)nc1)c1ccc2nc(N3CCC3)c(OCC3CC3)c(Cl)c2c1 (single isomer, unassigned) [Example 87c, [2-Azetidin-1-yl-4-chloro-3-(cyclopropylmethoxy)quinolin-6-yl](1-methyl-1H-imidazol-5-yl)[6-(trifluoromethyl)pyridin-3-yl]methanol]",,,,0.12,,,
"COc1nc2ccc(C(O)c3cnc(C)n3C)cc2c(Cl)c1OC(C)C (stereo not drawn) [Example 156, (4-chloro-3-isopropoxy-2-methoxyquinolin-6-yl)(1,2-dimethyl-1H-imidazol-5-yl)methanol]",,> 6,,,3.4,34,
"COc1nc2ccc(C(O)(c3ccc(C(F)(F)F)nc3)c3cncn3C)cc2c(Cl)c1OCc1cccnc1 (single isomer, unassigned) [Example 76b, [4-Chloro-2-methoxy-3-(pyridin-3-ylmethoxy)quinolin-6-yl](1-methyl-1H-imidazol-5-yl)[6-(trifluoromethyl)pyridin-3-yl]methanol]",1.2,> 6,,,,,−17
"Cc1ccc(C(O)(c2ccc3nc(Cl)c(CC(F)(F)F)c(N4CCC4)c3c2)c2cnnn2C)c(C)n1 (single isomer, unassigned) [Example 238b, [4-(Azetidin-1-yl)-2-chloro-3-(2,2,2-trifluoroethyl)-6-quinolyl]-(2,6-dimethyl-3-pyridyl)-(3-methyltriazol-4-yl)methanol]",,> 6,,,13,9,
"COc1nc2ccc(C(O)(c3ccc(C(F)(F)F)nc3)c3cncn3C)cc2c(Cl)c1OCc1cccnc1 (single isomer, unassigned) [Example 76c, [4-Chloro-2-methoxy-3-(pyridin-3-ylmethoxy)quinolin-6-yl](1-methyl-1H-imidazol-5-yl)[6-(trifluoromethyl)pyridin-3-yl]methanol]",0.11,> 6,,,,,−35
"Cc1ccc(C(O)(c2ccc3nc(Cl)c(CC(F)(F)F)c(N4CCC4)c3c2)c2cnnn2C)c(C)n1 (stereo not drawn) [Example 238a, [4-(Azetidin-1-yl)-2-chloro-3-(2,2,2-trifluoroethyl)-6-quinolyl]-(2,6-dimethyl-3-pyridyl)-(3-methyltriazol-4-yl)methanol]",,> 6,,,> 24,−8,
"COc1nc2ccc(C(O)(c3ccc(C)nc3C)c3cnnn3C)cc2c(Cl)c1OCCS(C)(=O)=O (single isomer, unassigned) [Example 70b, {4-Chloro-2-methoxy-3-[2-(methylsulfonyl)ethoxy]quinolin-6-yl}(2,6-dimethylpyridin-3-yl)(1-methyl-1H-1,2,3-triazol-5-yl)methanol]",2.2,> 6,28,,,,
"COc1nc2ccc(C(O)(c3cncn3C)C3CCN(S(C)(=O)=O)CC3)cc2c(Cl)c1CC1CCOCC1 (stereo not drawn) [Example 6a, (4-Chloro-2-methoxy-3-((tetrahydro-2H-pyran-4-yl)methyl)quinolin-6-yl)(1-methyl-1H-imidazol-5-yl)(1-(methylsulfonyl)piperidin-4-yl)methanol]",0.22,> 6,26,,,,
"COc1nc2ccc(C(O)(c3ccc(C(F)(F)F)nc3)c3cncn3C)cc2c(Cl)c1C1=CCN(C)CC1 (stereo not drawn) [Example 33, [4-Chloro-2-methoxy-3-(1-methyl-1,2,3,6-tetrahydropyridin-4-yl)quinolin-6-yl](1-methyl-1H-imidazol-5-yl)[6-(trifluoromethyl)pyridin-3-yl]methanol.TFA]",4.8,> 6,-32,,,,
"COc1nc2ccc(C(O)(c3cnc(C)n3C)c3cnc(C)n3C)cc2c(Cl)c1OC1CCCN(C)C1 (single isomer, unassigned) [Example 51c, (4-Chloro-2-methoxy-3-{[1-methylpiperidin-3-yl]oxy}quinolin-6-yl)[bis(1,2-dimethyl-1H-imidazol-5-yl)]methanol]",5,> 6,-4,,,,
"Cn1cncc1C(O)(c1ccc(C(F)(F)F)nc1)c1ccc2nc(N3CCC3)c(OCc3ccccc3)c(Cl)c2c1 (stereo not drawn) [Example 31, [2-Azetidin-1-yl-3-(benzyloxy)-4-chloroquinolin-6-yl](1-methyl-1H-imidazol-5-yl)[6-(trifluoromethyl)pyridin-3-yl]methanol.TFA]",0.027,> 6,-32,,,,
"CC(=O)N1CCC(C(O)(c2ccc3nc(C(F)(F)F)c(C(=O)N4CCCCC4)c(C(F)(F)F)c3c2)c2cncn2C)CC1 (stereo not drawn) [Example 9, 1-(4-(Hydroxy(1-methyl-1H-imidazol-5-yl)(3-(piperidine-1-carbonyl)-2,4-bis(trifluoromethyl)quinolin-6-yl)methyl)piperidin-1-yl)ethanone]",8.2,> 6,16,,,,
"COc1nc2ccc(C(O)(c3cncn3C)C3CCN(S(C)(=O)=O)CC3)cc2c(Cl)c1CC1CCOCC1 (single isomer, unassigned) [Example 6c, (4-Chloro-2-methoxy-3-((tetrahydro-2H-pyran-4-yl)methyl)quinolin-6-yl)(1-methyl-1H-imidazol-5-yl)(1-(methylsulfonyl)piperidin-4-yl)methanol]",0.13,> 6,,,,,26
"COc1nc2ccc(C(O)(c3ccc(C)nc3C)c3cnnn3C)cc2c(Cl)c1OCCN(C)C (single isomer, unassigned) [Example 74b, {4-Chloro-3-[2-(dimethylamino)ethoxy]-2-methoxyquinolin-6-yl}(2,6-dimethylpyridin-3-yl)(1-methyl-1H-1,2,3-triazol-5-yl)methanol]",4.9,> 6,-9,,,,
"Cc1c(-c2ccc3c(cnn3C)c2)nc2ccc(C(O)(c3cccnc3)c3cccc(Cl)c3)cc2c1Cl (stereo not drawn) [Example 24, [4-Chloro-3-methyl-2-(1-methyl-1H-indazol-5-yl)quinolin-6-yl](3-chlorophenyl)pyridin-3-ylmethanol]",2,> 6,29,,,,
"COc1nc2ccc(C(O)(c3ccccc3)C3CCN(C(C)=O)CC3)cc2c(Cl)c1CC1CCOCC1 (stereo not drawn) [Example 4a, 1-(4-((4-Chloro-2-methoxy-3-((tetrahydro-2H-pyran-4-yl)methyl)quinolin-6-yl)(hydroxy)(phenyl)methyl)piperidin-1-yl)ethanone]",0.016,> 6,24,,,,
"COc1nc2ccc(C(O)(c3cncn3C)C3CCN(S(C)(=O)=O)CC3)cc2c(Cl)c1CC1CCOCC1 (single isomer, unassigned) [Example 6b, (4-Chloro-2-methoxy-3-((tetrahydro-2H-pyran-4-yl)methyl)quinolin-6-yl)(1-methyl-1H-imidazol-5-yl)(1-(methylsulfonyl)piperidin-4-yl)methanol]",0.24,> 6,17,,,,
"COc1nc2ccc(C(O)(c3cnc(C)n3C)c3cnc(C)n3C)cc2c(Cl)c1OCc1ccccc1 [Example 75, [3-(benzyloxy)-4-chloro-2-methoxyquinolin-6-yl][bis(1,2-dimethyl-1H-imidazol-5-yl)]methanol]",0.009,> 6,-1,,,,
"COc1nc2ccc(C(O)(c3ccc(C)nc3C)c3cnnn3C)cc2c(Cl)c1OCCN1CCCC1 (single isomer, unassigned) [Example 67b, [4-Chloro-2-methoxy-3-(2-pyrrolidin-1-ylethoxy)quinolin-6-yl](2,6-dimethylpyridin-3-yl)(1-methyl-1H-1,2,3-triazol-5-yl)methanol]",1,> 6,-37,,,,
"Cc1ncc(C(O)c2ccc3nc(Cl)c(OC(C)C)c(Cl)c3c2)n1C (stereo not drawn) [Example 172, (2,4-dichloro-3-isopropoxyquinolin-6-yl)(1,2-dimethyl-1H-imidazol-5-yl)methanol]",,> 6,,,12,12,
"COc1nc2ccc(C(O)(c3ccc(C(F)(F)F)nc3)c3cncn3C)cc2c(Cl)c1CCC1CCN(C(C)=O)CC1 (stereo not drawn) [Example 32, {3-[2-(1-Acetylpiperidin-4-yl)ethyl]-4-chloro-2-methoxyquinolin-6-yl}(1-methyl-1H-imidazol-5-yl)[6-(trifluoromethyl)pyridin-3-yl]methanol]",0.039,> 6,32,,,,
COc1nc2ccc([C@](O)(c3ccccc3)C3CCN(C(C)=O)CC3)cc2c(Cl)c1CC1CCOCC1 [Example 4c],0.053,> 6,,,,,−6
"COc1nc2ccc(C(O)(c3ccc(C)nc3C)c3cnnn3C)cc2c(Cl)c1C(=O)NCC1CC1 (stereo not drawn) [Example 147, 4-Chloro-N-(cyclopropylmethyl)-6-[(2,6-dimethylpyridin-3-yl)(hydroxy)(1-methyl-1H-1,2,3-triazol-5-yl)methyl]-2-methoxyquinoline-3-carboxamide]",,,,,0.93,,
